Measurements: PubChem BioAssay (NCI)
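96-well plates; 48 h exposure; 5 concentrations. Endpoints by linear interpolation between flanking doses. Not reached: highest tested concentration assigned. TGI denotes the concentration required for complete inhibition of growth.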

Key:
Assay in all cases: NCI-60 cell line screen, 48 h
[1] = tested on: SK-MEL-2 melanoma
[2] = tested on: OVCAR-4 ovarian
[3] = tested on: NCI-H23 lung
[4] = tested on: DMS 114 small cell lung
[5] = tested on: NCI-H522 lung
[6] = tested on: SW-620 colon
[7] = tested on: UACC-62 melanoma
[8] = tested on: HOP-62 NSCLC
[9] = tested on: RXF-631 renal
[10] = tested on: SR leukemia
[11] = tested on: SF-268 CNS
[12] = tested on: M19-MEL melanoma
[13] = tested on: CAKI-1 renal
[14] = tested on: NCI-H226 lung
[15] = tested on: LOX IMVI melanoma
[16] = tested on: DLD-1 colon
[17] = tested on: KM20L2 colon
[18] = tested on: MOLT-4 leukemia
[19] = tested on: UACC-257 melanoma
[20] = tested on: SK-MEL-28 melanoma
[21] = tested on: RXF 393 renal
[22] = tested on: XF 498 CNS
[23] = tested on: 786-0 renal
[24] = tested on: UO-31 renal
[25] = tested on: SK-OV-3 ovarian
[26] = tested on: A549 NSCLC
[27] = tested on: KM12 colon
[28] = tested on: HCT-116 colon
[29] = tested on: IGROV1 ovarian
[30] = tested on: HCC-2998 colon
[31] = tested on: OVCAR-5 ovarian
[32] = tested on: RPMI-8226 leukemia
[33] = tested on: NCI-H460 lung
[34] = tested on: CCRF-CEM leukemia
[35] = tested on: COLO 205 colon
[36] = tested on: SNB-78 CNS
[37] = tested on: TK-10 renal
[38] = tested on: K-562 leukemia
[39] = tested on: LXFL 529 NSCLC
[40] = tested on: SNB-19 CNS
[41] = tested on: HT29 colon
[42] = tested on: OVCAR-3 ovarian
[43] = tested on: M14 melanoma
[44] = tested on: EKVX NSCLC
[45] = tested on: MALME-3M melanoma
[46] = tested on: HL-60(TB) leukemia
[47] = tested on: HCT-15 colon
[48] = tested on: ACHN renal
[49] = tested on: SN12C renal
[50] = tested on: SF-295 CNS
[51] = tested on: SNB-75 CNS
[52] = tested on: DMS 273 small cell lung
[53] = tested on: OVCAR-8 ovarian
[54] = tested on: SF-539 CNS
[55] = tested on: U251 CNS
[56] = tested on: SK-MEL-5 melanoma
[57] = tested on: HOP-92 NSCLC
[58] = tested on: A498 renal

Measured: TGI

CCC1=CCN(c2ccc(C)cc2)OC1c1ccc(OC)cc1 (centres undefined)
> 100 µM: [1] | [2] | [3] | [4] | [5] | [6] | [7] | [8] | [9] | [10] | [11] | [12] | [13] | [14] | [15] | [16] | [17] | [18] | [19] | [20] | [21] | [22] | [23] | [24] | [25] | [26] | [27] | [28] | [29] | [30] | [31] | [32] | [33] | [34] | [35] | [36] | [37] | [38] | [39] | [40] | [41] | [42] | [43] | [44] | [45] | [46] | [47] | [48] | [49] | [50] | [51] | [52] | [53] | [54] | [55]

Cc1ccc(S(=O)(=O)C(CC(NC=O)S(=O)(=O)c2ccc(C)cc2)NC=O)cc1 (centres undefined)
> 100 µM: [2] | [3] | [4] | [5] | [6] | [7] | [8] | [9] | [10] | [11] | [12] | [13] | [14] | [15] | [16] | [17] | [18] | [19] | [56] | [57] | [21] | [22] | [23] | [24] | [25] | [26] | [27] | [28] | [58] | [29] | [30] | [32] | [33] | [34] | [35] | [36] | [37] | [38] | [39] | [40] | [41] | [42] | [43] | [44] | [45] | [46] | [47] | [49] | [50] | [51] | [52] | [53] | [54] | [55]
